Results published in ChEMBL document CHEMBL5244208, “Privileged scaffolds as MAO inhibitors: Retrospect and prospects” (Eur J Med Chem, 2018).
pIC50, pKi: −log10 of the molar value. Values joined by “and” are separate entries in the source; they are usually repeats but may differ in a detail not shown here. Identical values can stand only once.

Assays:
[1] = molecular target: Acetylcholinesterase (Homo sapiens, UniProt P22303); experiment: Inhibition of AChE (unknown origin) using acetylthiocholine chloride as substrate incubated for 5 mins by DTNB reagent based Ellman's method
[2] = molecular target: T1, Amine oxidase [flavin-containing] A (Homo sapiens, UniProt P21397); experiment: Inhibition of human MAO-A using tyramine hydrochloride as substrate preincubated for 30 mins followed by substrate addition and measured for 1 hr by microplate reader method
T1 sequence (P21397 whole entry): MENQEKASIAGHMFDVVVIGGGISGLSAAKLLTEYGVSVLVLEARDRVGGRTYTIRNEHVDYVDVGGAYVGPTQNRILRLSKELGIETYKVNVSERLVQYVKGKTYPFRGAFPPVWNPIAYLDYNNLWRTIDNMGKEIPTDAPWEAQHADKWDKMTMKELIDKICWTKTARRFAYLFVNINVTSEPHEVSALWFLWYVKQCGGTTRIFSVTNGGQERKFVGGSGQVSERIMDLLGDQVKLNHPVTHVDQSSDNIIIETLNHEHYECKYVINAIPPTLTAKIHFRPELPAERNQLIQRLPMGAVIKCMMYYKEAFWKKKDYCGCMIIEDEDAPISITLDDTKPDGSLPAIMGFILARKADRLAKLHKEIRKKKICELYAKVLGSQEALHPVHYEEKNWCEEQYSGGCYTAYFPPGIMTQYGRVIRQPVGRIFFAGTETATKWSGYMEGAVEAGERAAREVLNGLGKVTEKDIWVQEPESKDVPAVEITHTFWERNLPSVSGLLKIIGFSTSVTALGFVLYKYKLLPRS

[3] = molecular target: T1, Amine oxidase [flavin-containing] A; experiment: Inhibition of human recombinant MAO-A
[4] = molecular target: T2, Amine oxidase [flavin-containing] B (Homo sapiens, UniProt P27338); experiment: Inhibition of human MAO-B
T2 sequence (P27338 whole entry): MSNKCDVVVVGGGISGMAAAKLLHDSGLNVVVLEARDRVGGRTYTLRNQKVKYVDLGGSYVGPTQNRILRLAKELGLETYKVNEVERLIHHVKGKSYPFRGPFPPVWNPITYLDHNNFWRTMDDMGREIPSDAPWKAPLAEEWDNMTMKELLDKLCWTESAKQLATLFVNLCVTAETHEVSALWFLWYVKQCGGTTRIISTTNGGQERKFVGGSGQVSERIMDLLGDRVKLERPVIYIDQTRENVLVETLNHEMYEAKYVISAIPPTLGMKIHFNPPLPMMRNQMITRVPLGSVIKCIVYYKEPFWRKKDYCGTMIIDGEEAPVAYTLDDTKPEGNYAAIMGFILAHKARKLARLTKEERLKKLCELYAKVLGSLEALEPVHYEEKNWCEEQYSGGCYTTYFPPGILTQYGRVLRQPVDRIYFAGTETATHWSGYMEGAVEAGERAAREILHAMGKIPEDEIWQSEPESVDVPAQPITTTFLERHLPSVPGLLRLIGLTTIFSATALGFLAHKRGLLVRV

[5] = molecular target: T1, Amine oxidase [flavin-containing] A; experiment: Inhibition of MAO-A (unknown origin) incubated for 60 mins by fluorometric spectrophotometry analysis
[6] = molecular target: T1, Amine oxidase [flavin-containing] A; experiment: Inhibition of MAO-A (unknown origin)
[7] = molecular target: T2, Amine oxidase [flavin-containing] B; experiment: Inhibition of MAO-B (unknown origin); details: for IC50: read-out: pIC50 (converted)
[8] = molecular target: T2, Amine oxidase [flavin-containing] B; experiment: Irreversible inhibition of human recombinant MAO-B
[9] = molecular target: T1, Amine oxidase [flavin-containing] A; experiment: Irreversible inhibition of human recombinant MAO-A
[10] = molecular target: T3, Amine oxidase [flavin-containing] A (Rattus norvegicus, UniProt P21396); experiment: In vivo inhibition of MAO-A in Wistar rat with assessed as decrease in MAO activity in […] at 10 to 30 mg/kg, ip measured after 2 hrs; format: functional, organism-based; set-up: scale not given: the % may be the effect or the level left; details: dose 10-30 mg/kg
T3 sequence (P21396 whole entry): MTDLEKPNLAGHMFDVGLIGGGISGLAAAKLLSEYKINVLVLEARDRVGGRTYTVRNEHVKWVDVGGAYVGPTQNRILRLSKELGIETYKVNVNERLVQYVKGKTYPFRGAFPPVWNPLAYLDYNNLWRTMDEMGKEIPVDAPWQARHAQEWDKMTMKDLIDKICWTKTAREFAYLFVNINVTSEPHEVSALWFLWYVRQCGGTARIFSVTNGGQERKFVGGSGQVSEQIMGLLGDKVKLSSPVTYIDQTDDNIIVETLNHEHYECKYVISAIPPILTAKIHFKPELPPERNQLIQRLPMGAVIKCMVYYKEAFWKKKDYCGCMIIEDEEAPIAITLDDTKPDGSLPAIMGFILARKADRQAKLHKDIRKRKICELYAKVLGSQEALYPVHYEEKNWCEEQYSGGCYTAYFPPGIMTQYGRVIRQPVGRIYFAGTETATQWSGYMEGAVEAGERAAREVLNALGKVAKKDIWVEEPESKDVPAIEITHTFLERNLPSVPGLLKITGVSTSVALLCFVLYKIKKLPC

[11] = molecular target: T1, Amine oxidase [flavin-containing] A; experiment: Inhibition of recombinant human MAO-A using kynuramine as substrate incubated for 20 mins by spectrophotometry analysis
[12] = molecular target: T3, Amine oxidase [flavin-containing] A; experiment: Inhibition of rat MAO-A

Sequence of Acetylcholinesterase (P22303 whole entry): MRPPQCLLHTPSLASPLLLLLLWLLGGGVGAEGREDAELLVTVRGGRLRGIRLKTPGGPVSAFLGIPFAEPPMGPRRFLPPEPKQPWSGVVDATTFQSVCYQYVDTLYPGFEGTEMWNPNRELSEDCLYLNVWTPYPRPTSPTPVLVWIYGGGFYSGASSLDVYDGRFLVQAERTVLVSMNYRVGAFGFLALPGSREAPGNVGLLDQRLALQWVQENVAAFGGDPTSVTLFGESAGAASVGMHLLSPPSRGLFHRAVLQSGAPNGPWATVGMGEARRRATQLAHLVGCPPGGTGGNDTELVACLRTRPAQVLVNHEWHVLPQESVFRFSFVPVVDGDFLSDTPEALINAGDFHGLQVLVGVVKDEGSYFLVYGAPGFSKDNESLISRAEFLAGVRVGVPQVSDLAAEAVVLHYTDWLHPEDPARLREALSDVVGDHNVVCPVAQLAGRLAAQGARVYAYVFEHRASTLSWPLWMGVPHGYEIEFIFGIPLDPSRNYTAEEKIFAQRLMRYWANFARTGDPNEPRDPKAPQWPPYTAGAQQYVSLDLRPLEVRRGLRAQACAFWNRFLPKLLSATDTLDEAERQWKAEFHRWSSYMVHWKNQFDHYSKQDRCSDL

SMILES: Cc1cc(=O)c2cc(Oc3ccccc3)ccc2o1
- pIC50 [1]: 5.52

SMILES: O=C(c1cc(O)cc(O)c1)c1c(O[C@@H]2OC[C@@H](O)[C@H](O)[C@H]2O)cc(O)cc1O[C@H]1O[C@@H](CO)[C@H](O)[C@H]1O
- pIC50 [2]: 3.14

SMILES: CC(=O)Nc1ccc2c(c1)S(=O)(=O)c1cc(C)ccc1C2=O
- pIC50 [3]: 8.00

SMILES: Cc1c(C)c2ccc(OCc3cccc(O)c3)cc2oc1=O
- pIC50 [1]: 5.52

SMILES: OCCn1nnc(-c2ccc(OCc3ccccc3)cc2)n1
- pIC50 [4]: 8.70

SMILES: CC(=O)Nc1ccc2c(c1)C(=O)c1ccccc1C2=O
- pIC50 [3]: 8.00

SMILES: C[C@@H]1O[C@@H](OC[C@H]2O[C@@H](Oc3c(-c4ccc(O)c(O)c4)oc4cc(O)cc(O)c4c3=O)[C@H](O)[C@@H](O)[C@@H]2O)[C@H](O)[C@H](O)[C@H]1O [RUTIN]
- pIC50 [5]: 5.41

SMILES: O=c1ccoc2ccc(Oc3ccccc3)cc12
- pIC50 [1]: 5.52

SMILES: Cc1c(C)c2ccc(OCc3ccccc3)cc2oc1=O
- pIC50 [1]: 5.52

SMILES: COc1cc(O)cc(O[C@H]2O[C@@H](CO)[C@H](O)[C@H]2O)c1C(=O)c1cc(O)cc(O)c1
- pIC50 [2]: 3.51

SMILES: C/C(=C\COc1ccc2ccc(=O)oc2c1)C1=CC(=O)C(C)(C)O1 [GEIPARVARIN]
- IC50 [7]: 24000 nM

SMILES: CC(=O)Nc1ccc2c(c1)S(=O)(=O)c1ccccc1O2
- pIC50 [3]: 8.00

SMILES: O=c1c(O[C@@H]2O[C@H](CO)[C@@H](O)[C@H](O)[C@H]2O)c(-c2ccc(O)c(O)c2)oc2cc(O)cc(O)c12 [ISOQUERCETIN]
- pIC50 [5]: 4.72

SMILES: CC(=O)Nc1ccc2c(c1)S(=O)(=O)c1ccccc1N2
- pIC50 [3]: 8.00

SMILES: O=C(c1cc(O)cc(O)c1)c1c(O)cc(O)cc1O[C@H]1O[C@@H](CO)[C@H](O)[C@H]1O
- pIC50 [2]: 3.95

SMILES: Cc1ccccc1COc1ccc2c(C)c(C)c(=O)oc2c1
- pIC50 [1]: 5.52

SMILES: C#CCN(C)Cc1ccc(C(=O)NC2CC(C)(C)N([O])C(C)(C)C2)cc1
- pKi [8]: 4.82

SMILES: C#CCN(C)Cc1cccc(C(=O)NC2CC(C)(C)N([O])C(C)(C)C2)c1
- pKi [9]: 3.57

SMILES: CC(=O)Nc1ccc2c(c1)S(=O)(=O)c1cc(NC(C)=O)ccc1N2C
- pIC50 [3]: 8.00

SMILES: OCCn1nnc(-c2ccc(OCc3cccc(Cl)c3)cc2)n1
- pIC50 [4]: 8.70

SMILES: N#CCCn1nnc(-c2ccc(OCc3cccc(Cl)c3)cc2)n1
- pIC50 [4]: 5.10

SMILES: C[C@]12CC[C@H](O)CC1=CC[C@@H]1[C@@H]2CC[C@]2(C)C(=O)CC[C@@H]12 [PRASTERONE]
- Activity [10]: -24%

SMILES: Cc1c(C)c2ccc(OCc3cccc(N)c3)cc2oc1=O
- pIC50 [1]: 5.52

SMILES: CC(=O)Nc1cc2c(cc1NC(C)=O)S(=O)(=O)c1ccccc1C2
- pIC50 [3]: 8.00

SMILES: Cc1c(C)c2ccc(OCCc3ccccc3)cc2oc1=O
- pIC50 [1]: 5.52

SMILES: CCCc1ccc2c(c1)S(=O)(=O)c1cc(NC(C)=O)ccc1C2=O
- pIC50 [3]: 8.00

SMILES: COc1ccc(/C(=C\F)CN)cc1OC
- pIC50 ([7]; read-out: IC50): 8.00

SMILES: COC[C@H]1CN(n2cccc2)C(=O)O1
- pKi [11]: 8.31

SMILES: CC(=O)Nc1ccc2c(O)c3ccccc3nc2c1
- pIC50 [3]: 8.00

SMILES: O=C1C[C@@H](c2ccc(O)cc2)Oc2cc(O)cc(O)c21 [NARINGENIN]
- pIC50 [12]: 3.47

SMILES: Cc1c(C)c2ccc(OCc3cc(F)cc(F)c3)cc2oc1=O
- pIC50 [1]: 5.52

SMILES: CCc1ccc2c(c1)S(=O)(=O)c1cc(NC(C)=O)ccc1C2=O
- pIC50 [3]: 8.00

SMILES: O=c1oc2ccc(Cl)cc2cc1Cl
- IC50 [7]: 10 nM

SMILES: N#CCCn1nnc(-c2ccc(OCc3ccccc3)cc2)n1
- pIC50 [4]: 5.10

SMILES: Oc1ccc(/C=C/c2cc(O)cc3c2[C@@H](c2cc(O)cc(O)c2)C(c2ccc(O)cc2)O3)cc1 (stereo not given in full)
- pIC50 [4]: 5.30

SMILES: O=c1c(O)c(-c2ccc(O)c(O)c2)oc2cc(O)cc(O)c12 [QUERCETIN]
- pIC50 [5]: 4.93 and 4.96

SMILES: CC(=O)Nc1cccc2c1C(=O)c1ccccc1C2=O
- pIC50 [3]: 8.00

SMILES: CC(=O)Nc1ccc2c(c1)S(=O)(=O)c1ccccc1N2C
- pIC50 [3]: 8.00

SMILES: Cc1c(C)c2ccc(OCc3ccc(F)c(F)c3)cc2oc1=O
- pIC50 [1]: 5.52

SMILES: NS(=O)(=O)Cc1noc2ccccc12 [ZONISAMIDE]
- pKi [7]: 4.51

SMILES: C[C@@H]1O[C@@H](Oc2c(-c3ccc(O)c(O)c3)oc3cc(O)cc(O)c3c2=O)[C@H](O)[C@H](O)[C@H]1O [QUERCITRIN]
- pIC50 [6]: 4.74

SMILES: O=CN(C=O)c1ccc2c(c1)S(=O)(=O)c1ccccc1C2=O
- pIC50 [3]: 8.00

SMILES: CC(=O)Nc1ccc2c(c1)S(=O)(=O)c1ccccc1C2=O
- pIC50 [3]: 8.00

SMILES: CC(=O)Nc1ccc2c(c1)C(=O)c1ccccc1S2(=O)=O
- pIC50 [3]: 8.00
